Test results published in ChEMBL document CHEMBL5512619, “Anticancer mechanism of coumarin-based derivatives” (Eur J Med Chem, 2024).

Experiments:
HepG2 [1] = assay: Cytotoxicity against human HepG2 cells; assay type: functional, cell-based
[2] = Cytotoxicity against human Lu1 cells; assay type: functional, cell-based
HeLa [3] = assay: Cytotoxicity against human HeLa cells; assay type: functional, cell-based
[4] = target: Receptor tyrosine-protein kinase erbB-2 (Homo sapiens, UniProt P04626); assay: Inhibition of HER2 (unknown origin)
[5] = target: Epidermal growth factor receptor (Homo sapiens, UniProt P00533); assay: Inhibition of EGFR (unknown origin)
[6] = Cytotoxicity against human Lu1 cells incubated for 72 hrs by MTT assay; assay type: functional, cell-based; conditions: Lu1, 72 h
HeLa [7] = assay: Cytotoxicity against human HeLa cells incubated for 72 hrs by MTT assay; assay type: functional, cell-based
HepG2 [8] = assay: Cytotoxicity against human HepG2 cells incubated for 72 hrs by MTT assay; assay type: functional, cell-based; conditions: HepG2, 72 h
[9] = target: Vascular endothelial growth factor receptor 2 (Homo sapiens, UniProt P35968); assay: Inhibition of human VEGFR2
HepG2 [10] = assay: Antiproliferative activity against human HepG2 cells measured after 24 hrs by MTT assay; assay type: functional, cell-based; conditions: HepG2, 24 h
A549 [11] = assay: Antiproliferative activity against human A549 cells measured after 24 hrs by MTT assay; assay type: functional, cell-based; conditions: A549, 24 h
HCT-116 = assay: Antiproliferative activity against human HCT-116 cells measured after 24 hrs by MTT assay; assay type: functional, cell-based; conditions: HCT-116, 24 h
SK-OV-3 = assay: Antiproliferative activity against human SK-OV-3 cells measured after 21 hrs by MTT assay; assay type: functional, cell-based; conditions: SK-OV-3, 21 h
[12] = Antiproliferative activity against human Lu1 cells assessed as inhibition of cell growth after 72 hrs by MTT assay; assay type: functional, cell-based; conditions: Lu1, 72 h
HeLa [13] = assay: Antiproliferative activity against human HeLa cells assessed as inhibition of cell growth after 72 hrs by MTT assay; assay type: functional, cell-based
SK-MEL-2 = assay: Antiproliferative activity against human SK-MEL-2 cells assessed as inhibition of cell growth after 72 hrs by MTT assay; assay type: functional, cell-based; conditions: SK-MEL-2, 72 h
HepG2 [14] = assay: Antiproliferative activity against human HepG2 cells assessed as inhibition of cell growth after 72 hrs by MTT assay; assay type: functional, cell-based; conditions: HepG2, 72 h
MCF7 = assay: Antiproliferative activity against human MCF7 cells assessed as inhibition of cell growth after 72 hrs by MTT assay; assay type: functional, cell-based; conditions: MCF7, 72 h
Albumin = Albumin (Homo sapiens, UniProt P02768); assay: Reversible binding affinity to human serum albumin
A549 [15] = assay: Antiproliferative activity against human A549 cells incubated for 48 hrs by MTT assay; assay type: functional, cell-based; conditions: A549, 48 h
HeLa [16] = assay: Antiproliferative activity against human HeLa cells incubated for 48 hrs by MTT assay; assay type: functional, cell-based

Sequence of Receptor tyrosine-protein kinase erbB-2 (P04626 whole entry): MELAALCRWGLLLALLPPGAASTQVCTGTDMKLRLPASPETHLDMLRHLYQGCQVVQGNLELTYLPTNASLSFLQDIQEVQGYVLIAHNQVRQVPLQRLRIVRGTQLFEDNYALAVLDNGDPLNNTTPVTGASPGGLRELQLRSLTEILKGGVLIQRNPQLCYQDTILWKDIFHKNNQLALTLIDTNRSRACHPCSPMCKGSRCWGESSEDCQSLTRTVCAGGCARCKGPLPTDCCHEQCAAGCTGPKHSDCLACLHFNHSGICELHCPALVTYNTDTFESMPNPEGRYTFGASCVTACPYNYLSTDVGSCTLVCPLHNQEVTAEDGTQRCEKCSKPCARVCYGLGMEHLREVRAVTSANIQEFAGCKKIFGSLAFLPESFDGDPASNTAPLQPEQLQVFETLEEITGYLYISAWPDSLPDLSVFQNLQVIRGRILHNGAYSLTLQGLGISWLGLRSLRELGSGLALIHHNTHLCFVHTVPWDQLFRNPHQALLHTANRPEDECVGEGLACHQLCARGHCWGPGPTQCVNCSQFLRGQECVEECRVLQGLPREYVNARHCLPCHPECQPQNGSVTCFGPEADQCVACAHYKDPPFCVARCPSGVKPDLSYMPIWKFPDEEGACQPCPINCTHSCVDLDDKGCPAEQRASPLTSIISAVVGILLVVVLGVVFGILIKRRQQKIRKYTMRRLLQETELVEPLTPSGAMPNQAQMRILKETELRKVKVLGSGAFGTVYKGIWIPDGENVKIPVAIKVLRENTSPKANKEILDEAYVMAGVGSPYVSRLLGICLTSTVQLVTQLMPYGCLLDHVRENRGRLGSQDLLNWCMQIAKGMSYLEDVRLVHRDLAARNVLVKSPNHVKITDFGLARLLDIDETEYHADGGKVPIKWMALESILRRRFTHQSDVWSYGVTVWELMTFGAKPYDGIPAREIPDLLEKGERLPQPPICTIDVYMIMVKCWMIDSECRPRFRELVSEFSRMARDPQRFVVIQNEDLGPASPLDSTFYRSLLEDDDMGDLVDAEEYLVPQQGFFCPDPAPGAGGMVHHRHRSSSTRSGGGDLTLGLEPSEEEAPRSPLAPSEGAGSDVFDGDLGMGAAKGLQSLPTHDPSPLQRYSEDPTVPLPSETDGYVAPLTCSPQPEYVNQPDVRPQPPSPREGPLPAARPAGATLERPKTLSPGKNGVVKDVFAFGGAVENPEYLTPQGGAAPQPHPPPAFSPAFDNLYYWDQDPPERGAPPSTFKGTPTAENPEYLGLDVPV
Sequence of Epidermal growth factor receptor (P00533 whole entry): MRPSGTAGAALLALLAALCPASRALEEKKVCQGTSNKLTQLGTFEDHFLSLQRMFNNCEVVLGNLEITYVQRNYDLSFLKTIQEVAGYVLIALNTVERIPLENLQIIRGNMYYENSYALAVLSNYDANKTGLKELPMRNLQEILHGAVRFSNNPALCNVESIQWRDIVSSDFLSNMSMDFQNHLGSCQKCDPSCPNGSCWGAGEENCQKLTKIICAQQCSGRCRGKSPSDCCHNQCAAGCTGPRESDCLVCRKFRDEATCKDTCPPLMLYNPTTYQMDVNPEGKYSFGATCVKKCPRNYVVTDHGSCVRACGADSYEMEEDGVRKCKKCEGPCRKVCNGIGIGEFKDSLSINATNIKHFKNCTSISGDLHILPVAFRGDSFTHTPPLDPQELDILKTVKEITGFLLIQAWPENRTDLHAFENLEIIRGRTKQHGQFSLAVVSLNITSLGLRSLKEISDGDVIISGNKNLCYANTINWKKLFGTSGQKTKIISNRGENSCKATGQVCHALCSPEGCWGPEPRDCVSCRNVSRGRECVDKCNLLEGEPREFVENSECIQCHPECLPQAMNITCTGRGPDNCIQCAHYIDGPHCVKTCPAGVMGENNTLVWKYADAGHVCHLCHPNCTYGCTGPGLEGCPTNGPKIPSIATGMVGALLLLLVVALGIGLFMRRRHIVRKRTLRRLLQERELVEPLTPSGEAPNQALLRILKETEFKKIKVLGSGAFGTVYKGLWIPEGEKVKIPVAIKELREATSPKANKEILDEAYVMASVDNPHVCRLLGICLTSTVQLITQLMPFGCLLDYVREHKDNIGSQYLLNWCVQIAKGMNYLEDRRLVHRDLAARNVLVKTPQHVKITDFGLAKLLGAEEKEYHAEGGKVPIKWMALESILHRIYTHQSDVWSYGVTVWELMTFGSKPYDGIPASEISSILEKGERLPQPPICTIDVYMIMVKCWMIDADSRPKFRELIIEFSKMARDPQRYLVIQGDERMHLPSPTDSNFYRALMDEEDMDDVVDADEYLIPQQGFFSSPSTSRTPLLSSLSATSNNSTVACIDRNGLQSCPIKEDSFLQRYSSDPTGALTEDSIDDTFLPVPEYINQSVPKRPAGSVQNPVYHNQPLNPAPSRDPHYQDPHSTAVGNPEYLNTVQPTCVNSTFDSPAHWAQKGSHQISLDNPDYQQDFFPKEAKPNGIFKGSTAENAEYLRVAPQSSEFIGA
Sequence of Albumin (P02768 whole entry): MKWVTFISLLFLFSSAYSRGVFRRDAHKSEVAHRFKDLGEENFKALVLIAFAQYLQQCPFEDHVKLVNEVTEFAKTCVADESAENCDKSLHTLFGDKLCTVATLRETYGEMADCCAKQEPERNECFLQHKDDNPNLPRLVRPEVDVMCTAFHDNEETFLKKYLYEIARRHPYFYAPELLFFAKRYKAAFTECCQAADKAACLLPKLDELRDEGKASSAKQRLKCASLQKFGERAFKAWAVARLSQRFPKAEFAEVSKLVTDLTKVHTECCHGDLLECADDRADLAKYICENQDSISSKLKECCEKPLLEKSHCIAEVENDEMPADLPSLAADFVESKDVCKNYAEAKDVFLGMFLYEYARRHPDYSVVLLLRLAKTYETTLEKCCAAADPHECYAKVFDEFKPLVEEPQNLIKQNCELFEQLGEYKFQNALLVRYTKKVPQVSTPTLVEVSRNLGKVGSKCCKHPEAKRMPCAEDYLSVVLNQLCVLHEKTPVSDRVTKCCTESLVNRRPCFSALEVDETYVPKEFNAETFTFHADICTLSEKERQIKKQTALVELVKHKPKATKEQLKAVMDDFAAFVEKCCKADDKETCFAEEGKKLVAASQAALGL
Sequence of Vascular endothelial growth factor receptor 2 (P35968 whole entry): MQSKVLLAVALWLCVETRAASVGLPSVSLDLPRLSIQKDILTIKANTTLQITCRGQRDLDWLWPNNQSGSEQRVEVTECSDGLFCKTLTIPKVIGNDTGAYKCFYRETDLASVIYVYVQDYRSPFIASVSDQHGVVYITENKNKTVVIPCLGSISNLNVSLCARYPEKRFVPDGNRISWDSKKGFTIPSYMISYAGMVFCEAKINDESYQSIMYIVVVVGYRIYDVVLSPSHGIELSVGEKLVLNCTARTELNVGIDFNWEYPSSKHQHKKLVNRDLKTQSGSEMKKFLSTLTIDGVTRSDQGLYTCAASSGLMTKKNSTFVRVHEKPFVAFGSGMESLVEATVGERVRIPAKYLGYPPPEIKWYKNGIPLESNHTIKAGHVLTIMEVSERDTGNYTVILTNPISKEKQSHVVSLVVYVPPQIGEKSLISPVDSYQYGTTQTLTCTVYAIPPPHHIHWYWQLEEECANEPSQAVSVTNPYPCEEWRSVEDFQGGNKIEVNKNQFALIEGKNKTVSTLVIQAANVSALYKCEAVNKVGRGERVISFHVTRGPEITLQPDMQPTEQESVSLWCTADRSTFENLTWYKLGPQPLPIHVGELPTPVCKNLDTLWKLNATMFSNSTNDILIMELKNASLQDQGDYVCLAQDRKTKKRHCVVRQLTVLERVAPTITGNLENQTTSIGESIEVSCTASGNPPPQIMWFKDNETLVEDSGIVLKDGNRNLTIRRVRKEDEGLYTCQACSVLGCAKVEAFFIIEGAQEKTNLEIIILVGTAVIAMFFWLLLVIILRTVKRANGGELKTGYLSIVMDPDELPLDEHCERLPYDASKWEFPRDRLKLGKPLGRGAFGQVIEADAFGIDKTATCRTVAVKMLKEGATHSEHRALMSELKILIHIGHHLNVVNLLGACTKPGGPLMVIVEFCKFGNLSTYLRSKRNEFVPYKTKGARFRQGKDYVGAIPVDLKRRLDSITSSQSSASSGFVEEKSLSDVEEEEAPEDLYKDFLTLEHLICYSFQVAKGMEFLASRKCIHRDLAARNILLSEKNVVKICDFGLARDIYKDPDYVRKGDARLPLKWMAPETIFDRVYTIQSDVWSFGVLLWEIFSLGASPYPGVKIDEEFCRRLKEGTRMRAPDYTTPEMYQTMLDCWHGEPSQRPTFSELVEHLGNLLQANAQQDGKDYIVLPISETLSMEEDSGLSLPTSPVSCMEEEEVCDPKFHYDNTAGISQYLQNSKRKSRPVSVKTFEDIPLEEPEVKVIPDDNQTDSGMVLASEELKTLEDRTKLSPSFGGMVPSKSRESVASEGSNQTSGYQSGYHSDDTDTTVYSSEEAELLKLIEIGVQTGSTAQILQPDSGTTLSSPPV

Q: With `CC(=O)OC[C@H]1O[C@@H](n2c(-c3ccccc3)cs/c2=N\N=C\c2cc(=O)oc3cc(C)ccc23)[C@H](OC(C)=O)[C@@H](OC(C)=O)[C@@H]1OC(C)=O` as the compound, how does the IC50 (HepG2 [1]) read?
A: The IC50 was 1180 nM.

Q: What about the IC50 [2] of the same compound?
A: The IC50 was 1180 nM.

Q: What about the IC50 (HeLa [3]) of the same compound?
A: The IC50 was 1180 nM.

Q: For `CC(=O)OC[C@H]1O[C@@H](n2c(-c3ccccc3)cs/c2=N\N=C\c2cc(=O)oc3ccc(OCC(C)C)cc23)[C@H](OC(C)=O)[C@@H](OC(C)=O)[C@@H]1OC(C)=O`, which IC50 [4] is on record?
A: Its IC50 is 150 nM.

Q: And the IC50 (HepG2 [1])?
A: The IC50 was 1180 nM.

Q: And the IC50 [5]?
A: The IC50 was 150 nM.

Q: And the IC50 [2]?
A: Its IC50 is 1180 nM.

Q: What about the IC50 (HeLa [3]) of the same compound?
A: The IC50 was 1180 nM.

Q: Which results are given for `CC(=O)OC[C@H]1O[C@@H](N(C(C)=O)C2=NN(C(C)=O)C(c3cc(=O)oc4cc(OCC(C)C)ccc34)S2)[C@H](OC(C)=O)[C@@H](OC(C)=O)[C@@H]1OC(C)=O` (stereo partly drawn)?
A: IC50 [6]: 1180 nM; IC50 [4]: 130 nM; IC50 (HeLa [7]): 1180 nM; IC50 [5]: 220 nM; IC50 (HepG2 [8]): 1180 nM

Q: For `CN(C)c1ccc(C2CC(c3c(O)c4ccccc4oc3=O)=NN2c2nc(-c3ccccc3)c(/N=N/c3ccc(Cl)cc3)s2)cc1` (stereo not drawn), which IC50 [9] is on record?
A: The IC50 was 34 nM.

Q: What does the source list for `COc1ccc(-c2cc(-c3cc4ccccc4oc3=O)nc(NC(C)=O)c2C#N)cc1`?
A: IC50 (HepG2 [10]): 1100 nM; IC50 (A549 [11]): 1100 nM; IC50 (HCT-116): 1100 nM

Q: With `O=c1ccc2ccc(O[C@@H]3O[C@H](CO)[C@@H](O)[C@H](O)[C@H]3O)cc2o1` [SKIMMIN] as the compound, how does the IC50 (SK-OV-3) read?
A: The IC50 was over 100000 nM.

Q: Which results are given for `COc1ccc(-c2cc(-c3cc4ccccc4oc3=O)nc3nc(C)[nH]c(=O)c23)cc1`?
A: IC50 (HepG2 [10]): 1100 nM; IC50 (A549 [11]): 1100 nM; IC50 (HCT-116): 1100 nM

Q: For `COc1cccc2cc(/C(C)=N/NC(=S)N[C@@H]3O[C@H](COC(C)=O)[C@H](OC(C)=O)[C@H](OC(C)=O)[C@H]3OC(C)=O)c(=O)oc12`, which IC50 [12] is on record?
A: Its IC50 is 1280 nM.

Q: And the IC50 (HeLa [13])?
A: The IC50 was 1280 nM.

Q: And the IC50 (SK-MEL-2)?
A: Its IC50 is 1280 nM.

Q: And the IC50 (HepG2 [14])?
A: Its IC50 is 1280 nM.

Q: What about the IC50 (MCF7) of the same compound?
A: The IC50 was 1280 nM.

Q: Which Kd (Albumin) does the source give for `Cc1cc(=O)oc2cc(NCc3cc(Cl)cc(Cl)c3O)ccc12` here?
A: The Kd was 30 nM.

Q: For `Cc1cc(=O)oc2cc(NCc3cc([N+](=O)[O-])ccc3O)ccc12`, which Kd (Albumin) is on record?
A: Its Kd is 30 nM.

Q: For `Cc1nc(N2N=C(c3cc4ccccc4oc3=O)CC2c2ccc(N(C)C)cc2)sc1/N=N/c1ccc(Cl)cc1` (stereo not drawn), which IC50 [9] is on record?
A: The IC50 was 34 nM.

Q: Which IC50 (SK-OV-3) does the source give for `CC(C)(O[C@@H]1O[C@H](CO)[C@@H](O)[C@H](O)[C@H]1O)[C@@H]1Cc2cc3ccc(=O)oc3cc2O1` here?
A: The IC50 was over 100000 nM.

Q: What does the source list for `COc1ccc2oc(=O)cc(COc3c(C)occc3=O)c2c1`?
A: IC50 (A549 [15]): 2470 nM; IC50 (HeLa [16]): 2470 nM

Q: For `Cc1ccc2oc(=O)cc(COc3c(C)occc3=O)c2c1`, which IC50 (A549 [15]) is on record?
A: Its IC50 is 2470 nM.

Q: What about the IC50 (HeLa [16]) of the same compound?
A: Its IC50 is 2470 nM.

Q: For `Cc1cc(=O)oc2cc(NCc3cc(I)cc(I)c3O)ccc12`, which Kd (Albumin) is on record?
A: The Kd was 30 nM.

Q: For `CC(C)(O[C@@H]1O[C@H](CO)[C@@H](O)[C@H](O)[C@H]1O)[C@H]1Cc2cc3ccc(=O)oc3cc2O1` [NODAKENIN], which IC50 (SK-OV-3) is on record?
A: Its IC50 is over 100000 nM.

Q: Which results are given for `CC(=O)OC[C@H]1O[C@@H](NC(=S)N/N=C(\C)c2cc3cc(Br)ccc3oc2=O)[C@H](OC(C)=O)[C@@H](OC(C)=O)[C@H]1OC(C)=O`?
A: IC50 [12]: 1280 nM; IC50 (HeLa [13]): 1280 nM; IC50 (SK-MEL-2): 1280 nM; IC50 (HepG2 [14]): 1280 nM; IC50 (MCF7): 1280 nM

Q: Which IC50 (SK-OV-3) does the source give for `O=c1ccc2ccc(O[C@@H]3O[C@H](CO[C@@H]4OC[C@](O)(CO)[C@H]4O)[C@@H](O)[C@H](O)[C@H]3O)cc2o1` here?
A: Its IC50 is over 100000 nM.

Q: With `CC(=O)OC[C@H]1O[C@@H](NC(=S)N/N=C(\C)c2c(C)c3ccc(O)cc3oc2=O)[C@H](OC(C)=O)[C@@H](OC(C)=O)[C@H]1OC(C)=O` as the compound, how does the IC50 [12] read?
A: The IC50 was 1280 nM.

Q: What about the IC50 (HeLa [13]) of the same compound?
A: Its IC50 is 1280 nM.

Q: What about the IC50 (SK-MEL-2) of the same compound?
A: The IC50 was 1280 nM.

Q: What about the IC50 (HepG2 [14]) of the same compound?
A: The IC50 was 1280 nM.

Q: And the IC50 (MCF7)?
A: The IC50 was 1280 nM.

Q: With `Cc1cc(=O)oc2cc(NCc3cc(Br)cc(Br)c3O)ccc12` as the compound, how does the Kd (Albumin) read?
A: The Kd was 30 nM.

Q: Which IC50 [4] does the source give for `CC(=O)OC[C@H]1O[C@@H](n2c(-c3ccccc3)cs/c2=N\N=C\c2cc(=O)oc3cc(OCCC(C)C)ccc23)[C@H](OC(C)=O)[C@@H](OC(C)=O)[C@@H]1OC(C)=O` here?
A: Its IC50 is 150 nM.

Q: What about the IC50 (HepG2 [1]) of the same compound?
A: Its IC50 is 1180 nM.

Q: What about the IC50 [5] of the same compound?
A: The IC50 was 150 nM.

Q: What about the IC50 [2] of the same compound?
A: Its IC50 is 1180 nM.

Q: And the IC50 (HeLa [3])?
A: Its IC50 is 1180 nM.
